The text below walks through data of PubChem BioAssay AID1259408 (Genetic Toxicology Data Bank (GENE-TOX), 2018).

This data set has as its system GENE-TOX genotoxicity assays, various organisms and cells. Nature of the data set: GENE-TOX mutagenicity studies. Conditions: for call: Assay Type: In vivo carcinogenicity studies.
[1] abbreviates: Species/Cell Type: Mammalian polychromatic erythrocytes, Assay Type: Micronucleus test, chromosome aberrations, Assay Code: MNTT, Evaluation Type: Evaluation B (Post-1980).
Setting [2] is: Species/Cell Type: Chinese hamster lung (V79) cells, Assay Type: Forward gene mutation at the HPRT or ouabain locus, Assay Code: V79+, Evaluation Type: Evaluation A (Pre-1980).
Setting [3] is: Species/Cell Type: Nonhuman, Assay Code: CCG+, Evaluation Type: Evaluation A (Pre-1980).
The mark [4] stands for this setting: Species/Cell Type: Nonhuman, Assay Type: Sister-chromatid exchange (SCE) in vitro, Assay Code: SC2+D, Dose Response: With dose response, Evaluation Type: Evaluation B (Post-1980).
Where [5] appears, read: Species/Cell Type: Salmonella typhimurium (one or more of the five standard strains: TA98, TA100, TA1535, TA1537, and TA1538), Assay Type: Histidine reverse gene mutation, Ames assay, Assay Code: SALT, Evaluation Type: Evaluation A (Pre-1980).
The mark [6] stands for this setting: Species/Cell Type: Human, Assay Type: Sister-chromatid exchange (SCE) in vitro, Assay Code: SC1-, Evaluation Type: Evaluation B (Post-1980).
Where [7] appears, read: Species/Cell Type: Salmonella typhimurium (one or more of the five standard strains: TA98, TA100, TA1535, TA1537, and TA1538), Assay Type: Histidine reverse gene mutation, Ames assay, Assay Code: SAL+, Evaluation Type: Evaluation A (Pre-1980).

Active and inactive are the calls of the source. No rule for the calls is given here. Bridge positions count the residues as written; N and C are the ends. Square brackets hold non-standard residues; d marks the D form. Peptide text beside a SMILES is read from it. * marks the point of attachment. ξ: configuration not given here. Heptanoyl(5-Me) = CCC(C)CCCC(=O)*; ξThr(3R) = C[C@@H](O)C(N)C(=O)O; dDab = NCC[C@@H](N)C(=O)O; Dab = NCC[C@H](N)C(=O)O

As for `Cc1cc2c(C(C)C)c(O)c(O)c(C=O)c2c(O)c1-c1c(C)cc2c(C(C)C)c(O)c(O)c(C=O)c2c1O`, the mutagenic call runs as follows: (Species/Cell Type: Human lymphocytes, Assay Type: Sister-chromatid exchange (SCE) in vitro, Assay Code: SCL+, Evaluation Type: Evaluation B (Post-1980)) “active; positive”; (Species/Cell Type: Human, Assay Type: Sister-chromatid exchange (SCE) in vitro, Assay Code: SC1+, Evaluation Type: Evaluation B (Post-1980)) “active; positive”; (Species/Cell Type: Human, Sex: Male, Assay Type: Sperm morphology, Assay Code: SPH+, Evaluation Type: Evaluation A (Pre-1980)) “active; positive”; (Species/Cell Type: Mouse, Sex: Male, Assay Type: Sperm morphology, Assay Code: SPI+, Evaluation Type: Evaluation A (Pre-1980)) “active; positive”; (Species/Cell Type: Rabbit, Sex: Male, Assay Type: Sperm morphology, Assay Code: SPRT, Evaluation Type: Evaluation A (Pre-1980)) “no conclusion”; (Species/Cell Type: Rat, Sex: Male, Assay Type: Sperm morphology, Assay Code: SPA+, Evaluation Type: Evaluation A (Pre-1980)) “active; positive”.
In the case of `CNC(=O)C[C@@H](N)C(=O)N[C@@H](C(=O)N[C@@H]1C(=O)N2[C@@H]1SC(C)(C)[C@@H]2C(=O)O)c1ccc(O)cc1`, the mutagenic call under setting [1] was “no conclusion”.
As for `C/C=C1\C[C@H]2[C@@H](OC)Nc3cc(O)c(OC)cc3C(=O)N2C1`, the mutagenic call under setting [1] is listed as “no conclusion”.
As for `CCC1(CC)C(=O)NC(=O)NC1=O`, the mutagenic call was “active; positive” (Species/Cell Type: Nonhuman bone marrow, Assay Type: Chromosome aberrations, in vivo, Assay Code: CY#+, Evaluation Type: Evaluation A (Pre-1980)) and “inactive; negative” (Species/Cell Type: Nonhuman, Assay Type: Sister-chromatid exchange (SCE) in vitro, Assay Code: SC2-, Evaluation Type: Evaluation A (Pre-1980)).
Turning to `O=NN(CCCl)C(=O)NC1CCCCC1`, the mutagenic call by setting is: under setting [2], “active; positive”; (Species/Cell Type: Chinese hamster ovary (CHO) cells, Assay Type: Forward gene mutation at the HPRT locus, Assay Code: CHO+, Evaluation Type: Evaluation B (Post-1980)) “active; positive”; (Species/Cell Type: Human lymphocytes, Assay Type: Sister-chromatid exchange (SCE) in vivo, Assay Code: SCY+, Evaluation Type: Evaluation B (Post-1980)) “active; positive”; (Species/Cell Type: Nonhuman, Assay Type: Sister-chromatid exchange (SCE) in vitro, Assay Code: SC2+, Evaluation Type: Evaluation B (Post-1980)) “active; positive”; (Species/Cell Type: Rodents, Sex: Male, Assay Type: Dominant lethal test, Assay Code: DLT+D, Dose Response: With dose response, Evaluation Type: Evaluation A (Pre-1980)) “active; positive”. For the same compound, the call under setting [3] was “active; positive”.
For `C[N+](=O)[O-]`, the mutagenic call under setting [1] is on record as “no conclusion”.
Regarding `OC1C=Cc2c(c3cc4ccccc4cc3c3ccccc23)[C@H]1O` (some centres not stated), under setting [4], the mutagenic call was “active; positive”.
Regarding `Nc1nc(-c2csc(N)n2)cs1`, under setting [5], the mutagenic call was “no conclusion”.
Regarding `O=P1(N2CC2)NC2CCCC3CCCC(N1)C32` (configuration not stated), the mutagenic call (Species/Cell Type: Drosophila melanogaster, Assay Type: Sex-linked recessive lethal gene mutation, Assay Code: SRL+, Evaluation Type: Evaluation A (Pre-1980)) was “active; positive”.
`CC(C)(C)N(CCCCO)N=O`: the mutagenic call under setting [5] is on record as “no conclusion”.
For `[Cl][Sn]([Cl])([Cl])[Cl]`, the mutagenic call (Species/Cell Type: Bacillus subtilis (H17 vs M45), Assay Type: Rec-assay, spot test, DNA effects (bacterial DNA repair), Assay Code: REW-, Evaluation Type: Evaluation A (Pre-1980)) is “inactive; negative”.
With `O=C1O[C@H]([C@@H](O)CO)C(O)=C1O`, the mutagenic call reads like this: (Species/Cell Type: Human lymphocytes, Assay Type: Sister-chromatid exchange (SCE) in vitro, Assay Code: SCL+, Evaluation Type: Evaluation A (Pre-1980)) “active; positive”; (Species/Cell Type: Human lymphocytes, Assay Type: Sister-chromatid exchange (SCE) in vitro, Assay Code: SCLT, Evaluation Type: Evaluation B (Post-1980)) “no conclusion”; (Species/Cell Type: Human, Assay Type: Sister-chromatid exchange (SCE) in vitro, Assay Code: SC1+, Evaluation Type: Evaluation A (Pre-1980)) “active; positive”; (Species/Cell Type: Human, Assay Type: Sister-chromatid exchange (SCE) in vitro, Assay Code: SC1T, Evaluation Type: Evaluation B (Post-1980)) “no conclusion”; (Species/Cell Type: Mammalian polychromatic erythrocytes, Assay Type: Micronucleus test, chromosome aberrations, Assay Code: MNTT, Evaluation Type: Evaluation A (Pre-1980)) “no conclusion”; (Species/Cell Type: Mouse, Sex: Male, Assay Type: Sperm morphology, Assay Code: SPI-, Evaluation Type: Evaluation A (Pre-1980)) “inactive; negative”. In addition, the mutagenic call reads like this: (Species/Cell Type: Nonhuman, Assay Type: Sister-chromatid exchange (SCE) in vitro, Assay Code: SC2+, Evaluation Type: Evaluation A (Pre-1980)) “active; positive”; under setting [4], “active; positive”; (Species/Cell Type: Nonhuman, Assay Type: Sister-chromatid exchange (SCE) in vivo, Assay Code: SC3T, Evaluation Type: Evaluation B (Post-1980)) “no conclusion”; under setting [5], “no conclusion”.
In the case of `Clc1ccc2ccccc2n1`, under setting [5], the mutagenic call is listed as “no conclusion”.
In the case of `COP(=S)(OC)SCc1nc(N)nc(N)n1`, the mutagenic call (Species/Cell Type: Hordeum vulgare (barley), Assay Type: Chromosome aberrations, Assay Code: HOC-, Evaluation Type: Evaluation A (Pre-1980)) is “inactive; negative”.
Consider `CCC(C)CCCC(=O)N[C@@H](CCN)C(=O)N[C@H](C(=O)N[C@@H](CCN)C(=O)N[C@H]1CCNC(=O)C([C@@H](C)O)NC(=O)[C@@H](CCN)NC(=O)[C@H](CCN)NC(=O)[C@@H](CC(C)C)NC(=O)[C@@H](CC(C)C)NC(=O)[C@H](CCN)NC1=O)[C@@H](C)O` (stereo partly drawn) ({Heptanoyl(5-Me)}-[Dab]T[Dab][Dab][Dab][dL][dL][Dab][dDab][ξThr(3R)]; lactam 4-C), for which the mutagenic call (Species/Cell Type: Escherichia coli polA (W3119 vs P3478), Assay Type: Rec-assay, DNA effects (bacterial DNA repair), Assay Code: RE1-, Evaluation Type: Evaluation A (Pre-1980)) is “inactive; negative”; the mutagenic call (Species/Cell Type: Human lymphocytes, Assay Type: Sister-chromatid exchange (SCE) in vitro, Assay Code: SCL-, Evaluation Type: Evaluation B (Post-1980)) was “inactive; negative”; the mutagenic call under setting [6] is “inactive; negative”.
`O=CNNc1nc(-c2ccco2)cs1`: the mutagenic call (Species/Cell Type: Escherichia coli WP2, Assay Type: Tryptophan reverse gene mutation, Assay Code: WP2-, Evaluation Type: Evaluation A (Pre-1980)) is “inactive; negative” and the mutagenic call (Species/Cell Type: Escherichia coli WP2 UVRA, Assay Type: Tryptophan reverse gene mutation, Assay Code: WPU-, Evaluation Type: Evaluation A (Pre-1980)) was “inactive; negative”.
Consider `CN(N=O)C(=O)Nc1ccccc1`, for which the mutagenic call under setting [4] is “active; positive”.
Take `NC(=O)N(CCCl)N=O`: the mutagenic call under setting [2] is “active; positive”.
For `Clc1ccc(C(c2ccc(Cl)cc2)C(Cl)Cl)cc1`, the mutagenic call is, setting by setting: (Species/Cell Type: Drosophila melanogaster, Assay Type: Sex-linked recessive lethal gene mutation, Assay Code: SRLT, Evaluation Type: Evaluation A (Pre-1980)) “no conclusion”; (Species/Cell Type: Escherichia coli polA (W3119 vs P3478), Assay Type: Rec-assay, DNA effects (bacterial DNA repair), Assay Code: RE1T, Evaluation Type: Evaluation A (Pre-1980)) “no conclusion”; (Species/Cell Type: Nonhuman, Assay Type: Chromosome aberrations in vitro, Assay Code: CY&+, Evaluation Type: Evaluation A (Pre-1980)) “active; positive”; (Species/Cell Type: Serratia marcesens, Assay Type: Reverse gene mutation, host-mediated assay, Assay Code: HMC+, Evaluation Type: Evaluation A (Pre-1980)) “active; positive”.
`CCCCCCCCCCCCCC(=O)N(OC(C)=O)c1ccc2c(c1)Cc1ccccc1-2`: the mutagenic call was “active; positive” (Species/Cell Type: Human diploid fibroblasts, Assay Type: Unscheduled DNA synthesis (UDS) in vitro, DNA effects, Assay Code: UDH+, Evaluation Type: Evaluation A (Pre-1980)) and “active; positive” under setting [7].
For the compound `CC(O)CO` (configuration not stated), the mutagenic call is “inactive; negative” under setting [6] and “inactive; negative” (Species/Cell Type: Syrian hamster embryo (SHE) cells, Assay Type: Cell transformation, clonal assay, Assay Code: CTC-, Evaluation Type: Evaluation A (Pre-1980)).
As for `CC(COc1ccc(C(C)(C)C)cc1)OS(=O)OCCCl` (configuration not stated), the call under setting [3] was “active; positive”.
On to `Cc1occc(=O)c1O`, for which the mutagenic call runs as follows: (Species/Cell Type: Human lymphocytes, Assay Type: Sister-chromatid exchange (SCE) in vitro, Assay Code: SCL+D, Dose Response: With dose response, Evaluation Type: Evaluation B (Post-1980)) “active; positive”; (Species/Cell Type: Human, Assay Type: Sister-chromatid exchange (SCE) in vitro, Assay Code: SC1+D, Dose Response: With dose response, Evaluation Type: Evaluation B (Post-1980)) “active; positive”.
In the case of `O=CNc1nc(-c2cc([N+](=O)[O-])cs2)cs1`, under setting [7], the mutagenic call was “active; positive”.
With `CCN(CC)N=Nc1ccccc1`, under “Species/Cell Type: Mammalian polychromatic erythrocytes, Assay Type: Micronucleus test, chromosome aberrations, Assay Code: MNT+, Evaluation Type: Evaluation A (Pre-1980)”, the mutagenic call was “active; positive”. Besides, the call (Species/Cell Type: Nonhuman, Assay Code: CCG+L, Evaluation Type: Evaluation A (Pre-1980)) was “active; positive”.
For `CC(=O)Nc1ccc(CC(=O)c2ccccc2)cc1`, the mutagenic call under setting [5] is given as “no conclusion”.
For `CCCCCCCCC1CC1CCCCCCCC(=O)OCCOCCOC` (configuration not stated), under “Species/Cell Type: Nonhuman, Assay Type: Sister-chromatid exchange (SCE) in vitro, Assay Code: SC2T, Evaluation Type: Evaluation B (Post-1980)”, the mutagenic call is “no conclusion”.
